Columns and labels:
[1] = system: KRAS G12D mutated AGS (3D) cells; assay: Proliferation inhibition of KRAS G12D mutated AGS (3D) cells (methylcellulose 3D culture, CTG, 120 h); format: cell-based; conditions: Homo sapiens
Description: The inhibitory effect of representative compounds on the 3D proliferation of the AGS cell line was evaluated by non-adherent, spherical growth in a methylcellulose 3D culture medium.
The following materials, instruments and reagents were used in this experiment: Culture medium RPMI1640 (HyClone, Cat #SH30809.01); Fetal bovine serum FBS (GBICO, Cat #10099-141); CellTiter-Glo® Luminescent Cell Viability Assay (Novozymes Nanjing, Cat #DD1101-04); 96-well Polystyrene microplates (black-wall) (Greiner Bio one, Cat. #655096); Methylcellulose (SIGMA, CAS: 9004-67-5); AGS cells (KC-0405, Kangyuan Bochuang Biotechnology (Beijing) Co., Ltd.); Multifunctional microplate reader (BMG LABTECH, CLARIOstar® Plus); CO2 incubator (Thermo Scientific, Model 3100 Series).
Cell Culture and Inoculation: The cells in the logarithmic growth phase were harvested and cell counting was performed using a platelet counter. The cell viability was detected by Trypan Blue exclusion method to ensure that the cell viability was above 90%. The cell concentration was adjusted. After there were no visible air bubbles in the cell suspension, 180 μL of the cell suspension was added to each well of a 96-well plate respectively, so that the final concentration of methylcellulose was 0.65% and the number of cells was 2400 per well. The cells in the 96-well plate were cultured overnight at 37° C., 5% CO2 and 95% humidity.
The drug dilution and administration were carried out as follows: A 10-fold concentrated drug solution was prepared with the culture medium. 20 μL of the drug solution was added to each well of the 96-well plate inoculated with cells to make the maximum working concentration 10 μM, with a 3.16× dilution, a total of 9 concentrations. Three replicate wells were set for each drug concentration and the DMSO content was 0.1%. The cells in the 96-well plate with the added drugs were continuously cultured at 37° C., 5% CO2 and 95% humidity for 120 h, and then a CTG analysis was performed.
(§1) The CTG reagent was thawed and the cell plate was equilibrated to room temperature for 30 minutes. An equal volume of CTG solution was added to each well, and the plate was shaken on an orbital shaker for 5 minutes to lyse the cells. The cell plate was placed at room temperature for 20 minutes to stabilize the luminescence signal, and then the luminescence value was read.
The data were analyzed using GraphPad Prism 7.0 software. The data were fitted by nonlinear S-curve regression to obtain the dose-response curve, and the IC50 value was calculated accordingly. Cell survival rate (%)=(LumTest drug−LumMedium control)/(LumCell control−LumMedium control)×100%.

[2] = system: KRAS G12D mutated AGS human gastric adenocarcinoma cells; assay: Proliferation inhibition of KRAS G12D mutant AGS cells (CellTiter-Glo, 3 days; IC50 and single-point inhibition rate at 1 μM); format: cell-based; conditions: 72 h, 3 days incubation, max concentration 10 μM
Description: This experiment assessed and validated the proliferation inhibitory activity of some compounds of the present invention against KRAS G12D mutant AGS cells.
Incubate at 37° C., 5% CO2, 95% humidity.
The following materials, instruments, and reagents were used in this experiment: Fetal Bovine Serum FBS (GIBCO, Cat #10099-141); CellTiter-Glo® Luminescent Cell Viability Assay (Promega, Cat #G7572); 96-well clear flat-bottom black-wall plate (Corning®, Cat #3603); SpectraMax multimode microplate reader (MD, 2104-0010A); CO2 Incubator (Thermo Scientific, Model 3100 Series); Biosafety cabinet (Thermo Scientific, Model 1300 Series A2); Inverted microscope (Olympus, CKX41SF); AGS cell line was purchased from Nanjing Kebai Biotechnology Co., Ltd., under the lot number CBP60476.
Cell culture and inoculation: The cells in the logarithmic growth phase were harvested, and cell counting was performed using a platelet counter. The cell viability was detected by Trypan Blue exclusion method to ensure that the cell viability was above 90%. The cell concentration was adjusted. Then, 90 μL of the cell suspension was added to each well of a 96-well plate respectively, and the cells in the 96-well plate were cultured at 37° C. and 5% CO2.
Drug dilution and addition: a) For the preparation of drugs for single-point inhibition rate determination: A 10-fold concentrated drug solution was prepared. 10 μL of the drug solution was added to each well of the 96-well plate inoculated with cells to make the working concentration 1 μM, and three replicate wells were set for each drug concentration; b) For the preparation of drugs for IC50 determination: A 10-fold concentrated drug solution was prepared. 10 μL of the drug solution was added to each well of the 96-well plate inoculated with cells to make the maximum working concentration 10 μM, with a 3.16× dilution and a total of 9 concentrations. Three replicate wells were set for each drug concentration. The cells in the 96-well plate with the added drugs were incubated at 37° C. and 5% CO2 for another 3 days, and then the CTG assay was performed.
as §1, with “thawed,” for “thawed”
The data were analyzed using GraphPad Prism 7.0 software. The data were fitted by nonlinear S-curve regression to obtain the dose-response curve, and the IC50 value was calculated accordingly.

[3] = system: KRAS G12D mutated AGS human gastric adenocarcinoma cells; assay: Proliferation inhibition of KRAS G12D mutant AGS cells, another experiment with similar protocol (includes MRTX1133); format: cell-based
Description: In another experiment, using a protocol similar to the one described above, the inhibitory activity of some representative compounds of the present invention against KRAS G12D mutated AGS human gastric adenocarcinoma cells was determined.
The synthesis of compound MRTX1133 was performed according to the method described in J. Med. Chem. 2022, 65, 4, 3123-3133.

[4] = system: GP2D cells; assay: 3D proliferation inhibition of KRAS G12D mutated tumor cells, GP2D; format: cell-based, human; conditions: 3D methylcellulose culture, CTG, 120 hours
Text: (§2) This experiment evaluated and verified the proliferation inhibitory activity of the representative compounds of the present invention against the following five strains of KRAS-related tumor cells.
(§3) The following materials, reagents and instruments were used in this experiment: Five strains of cells were all from Nanjing Kebai Biotechnology Co., Ltd. (GP2D, CBP60010; HPAC, CBP60539; AsPC-1, CBP60546; KP-4, CBP60541; Panc 04.03, CBP60683); DMEM (Gibco, 11965092); RPMI-1640 (Gibco, SH30809.01); HPAC complete medium (Cobioer, CBP60539M); Fetal bovine serum FBS (Gibco, 10091-148); Insulin (Gibco, 41400045); Methylcellulose (methylcellulose, Sigma, 9004-67-5); Phosphate-buffered saline DPBS (Comning, 21-031-CVC); CellTiter-Glo® Luminescent Cell Viability Assay (Promega, Cat #G7573); 96-well clear flat-bottom black-wall plate (Corning, 3603); EnVision multilabel plate reader (PerkinElmer #2105); CO2 incubator (Thermo Scientific, Model 3 71 Series).
(§4) A sterilized 1% methylcellulose 3D culture medium was prepared in advance. The cells in the logarithmic growth phase were harvested, and a Countstar automatic cell counter based on the principle of the classic trypan blue staining method was used for cell counting and detecting cell viability to ensure that the cell viability was above 90%. The cell concentrations of GP2D, HPAC, AsPC-1, KP-f4, and Panc 04.03 were adjusted so that the final concentration of methylcellulose was 0.65%, and the mixture was allowed to stand after being well-mixed. After there were no visible air bubbles in the cell suspension, 80 μL of the cell suspension was added to each well of a 96-well plate, with a total of 1000-2000 cells. The cells in the 96-well plate were cultured overnight at 37° C., 5% CO2, and 95% humidity.
(§5) Drug Preparation for IC50 Determination: First, a 10 mM DMSO stock solution of each compound was prepared. For the first dilution, using DMSO as the solvent, each compound was first diluted to 5 mM and then serially diluted 3-fold to obtain 9 concentrations, preparing DMSO solutions of each compound at different concentrations. For the second dilution, a 5-fold diluted solution of each compound was prepared by a 1:100 dilution, using the complete medium as the solvent. […]
(§6) The cells in the 96-well plate with the added drugs were further cultured at 37° C. and 5% CO2 for 120 hours, and then a CTG analysis was performed. […] The cell plate was placed at room temperature for 20 minutes to stabilize the luminescence signal. The luminescence value was read, and the data were collected.
(§7) The data were analyzed using GraphPad Prism 9.0 software. Non-linear S-curve regression was used to fit the data to obtain the dose-response curve, and the IC50 value (nM) was calculated accordingly. […]

[5] = system: HPAC cells; assay: 3D proliferation inhibition of KRAS G12D mutated tumor cells, HPAC; format: cell-based, human; conditions: 3D methylcellulose culture, CTG, 120 hours
Text: as §2, §3, §4, §5, §6, §7

[6] = system: Panc 04.03 cells; assay: 3D proliferation inhibition of KRAS G12D mutated tumor cells, Panc 04.03; format: cell-based; conditions: CTG, 120 hours
Text: as §2, §3, §4, §5, §6, §7

[7] = system: KP-4 cells; assay: 3D proliferation inhibition of KRAS G12D mutated tumor cells, KP-4; format: cell-based; conditions: CTG, 120 hours
Text: as §2, §3, §4, §5, §6, §7

[8] = system: AsPC-1 cells; assay: 3D proliferation inhibition of KRAS G12D mutated tumor cells, AsPC-1; format: cell-based; conditions: Homo sapiens, ASPC1, 3D methylcellulose culture, CTG, 120 hours
Text: as §2, §3
as §4, with “After there were no visible air bubbles in the cell suspension, 80 μL of the cell suspension was added to each well of a 96-well plate, with a total of 1000-2000 cells. The cells in the 96-well plate were cultured overnight at 37° C., 5% CO2, and 95% humidity.” left out
as §6, §7

Work on `C#Cc1c(F)ccc2cc(O)cc(-c3c(F)cc4c(N5CC6CCC(C5)N6)nc(OC[C@]5(C)CN(CC=C)CCC5(F)F)nc4c3F)c12` (atropisomer, axis not shown; (Ra)) [Example 42] yielded an IC50 [1] of 47 nM and an IC50 [2] of 150 nM.
`C#Cc1c(F)ccc2cc(O)cc(-c3c(F)cc4c(N5CC6CCC(C5)N6)nc(OC[C@]5(C)CN(CC)CCC5(F)F)nc4c3F)c12` (atropisomer, axis not shown; (Ra)) [Example 43, (Ra)-4-(4-((1R,5S)-3,8-diazabicyclo[3.2.1]octan-3-yl)-2-(((S)-1-ethyl-4,4-difluoro-3-methylpiperidin-3-yl)methoxy)-6,8-difluoroquinazolin-7-yl)-5-ethynyl-6-fluoronaphthalen-2-ol] gave an IC50 [1] of 11 nM and an IC50 [2] of 37 nM.
`C#Cc1c(F)ccc2cc(O)cc(-c3c(F)cc4c(N5CC6CCC(C5)N6)nc(OC[C@]5(C)CN(CCF)CCC5(F)F)nc4c3F)c12` (atropisomer, axis not shown; (Ra)) [Example 44, (Ra)-4-(4-((1R,5S)-3,8-diazabicyclo[3.2.1]octan-3-yl)-2-(((S)-4,4-difluoro-1-(2-fluoroethyl)-3-methylpiperidin-3-yl)methoxy)-6,8-difluoroquinazolin-7-yl)-5-ethynyl-6-fluoronaphthalen-2-ol] showed an IC50 [1] of 118 nM and an IC50 [2] of 217 nM.
`CN1CC/C(=C\F)[C@](C)(COc2nc(N3C[C@H]4CC[C@@H](C3)N4)c3cc(Cl)c(-c4c(F)ccc5sc(N)c(C#N)c45)c(F)c3n2)C1` (single isomer, unassigned) [Example 324-1] was tested, and the IC50 [3] was 4 nM, the IC50 [4] was 0.39 nM and the IC50 [5] was 4.1 nM. The IC50 ([6]; 3D methylcellulose culture) was 1.34 nM and the IC50 ([7]; 3D methylcellulose culture) was 4.74 nM.
`C#Cc1c(F)ccc2cc(O)cc(-c3c(F)cc4c(N5CC6CCC(C5)N6)nc(OC[C@]5(C)CN(C)CCC5(F)F)nc4c3F)c12` [Example 6-2] gave an IC50 [1] of 17 nM and an IC50 [2] of 32 nM.
With `C#Cc1c(F)ccc2cc(O)cc(-c3ncc4c(N5CC6CCC(C5)N6)nc(OC[C@@]56CCCN5C[C@H](F)C6)nc4c3F)c12` [MRTX1133, reference compound] the IC50 ([3]; Homo sapiens) was 28 nM, the IC50 ([4]; Homo sapiens, GP2d) was 3 nM and the IC50 [8] was 18.3 nM. For the same molecule, the IC50 ([5]; Homo sapiens, HPAC) was 8.19 nM, the IC50 ([6]; Homo sapiens, Panc 04.03, 3D methylcellulose culture) was 20.6 nM and the IC50 ([7]; Homo sapiens, KP-4, 3D methylcellulose culture) was 42.6 nM.

— patent US20260176284A1, “Compounds with Anti-KRAS Mutated Tumor Activity” (Trasveda Ltd., priority 2022, published 2026)
